# Source: patent publication EP3378852A1, “AMORPHOUS FORM OF APREMILAST, PREPARATION METHOD THEREFOR, AND APPLICATION THEREOF” (Changzhou Ainuoxinrui Pharmaceuticals, Ltd., priority 2015, dated 2017)
# Tests used:
# Assay type in all cases: physicochemical
# [1] = Determination of apparent solubility (shake flask, 37 °C, 12 h, HPLC external standard); conditions: for Apparent solubility / solubility at 12 h: 37 °C ± 0.5 °C, 12h; for solubility at 12 h: thermodynamic from solid
# Description: Example 11: Determination of Apparent solubility
# The apparent solubility of the amorphous form of Apremilast in the present invention and the Apremilast crystal form is compared.
# The test objects were as follows: the amorphous form of Apremilast obtained in Example 1 of the present invention; the crystal Form B of Apremilast was prepared according to the patent CN102702070 Example 12. […]
# Preparation of diluents of different pH: • (1) pH=1.0 diluent: Add 9 mL of concentrated HCl to a 1000 mL of volumetric flask, diluted to the volume with water. • (2) pH=2.0 diluent: Solution A: Transfer 16.6 mL of phosphoric acid to a 100 mL volumetric flask, dilute to the volume with water, shake to mix. Solution B: Weigh and transfer 71.63g of […] phosphate to a 1000 mL of volumetric flask, dilute to the volume with water, dissolve and mix well. […]
# Example 51: Determination of Apparent solubility
# The test objects were as follows: the solid dispersion of amorphous Apremilast obtained in Example 23 of the present invention; the physical mixture comprising Apremilast crystalline (Apremilast crystal Form B, sorbitol and polyacrylic resin Eudragit L100 were mixed physically, and the weight ratio is 1:1:1, and the crystal Form B of Apremilast was prepared according to the patent CN102702070 Example 12.).
# [2] = Impact factor test (high temperature / high humidity stress stability; related substances by HPLC, crystallinity by XRPD)
# Description: Example 9: Impact factor test of the amorphous Apremilast
# Material: Amorphous Apremilast was prepared according to the method of Example 1
# (§1) Experiment conditions: temperature 40 °C ± 2 °C, humidity 75% ± 5%
# The substance was detected by HPLC.
# Example 46: Impact factor test of the solid dispersion of amorphous Apremilast and hydroxypropylcellulose SSL and povidone K30
# Material: the solid dispersion of amorphous Apremilast and hydroxypropylcellulose SSL and povidone K30 was prepared according to the method of Example 12
# Experiment conditions: temperature 40 °C ± 2 °C, humidity 75% ± 5% The substance was detected by HPLC.
# Example 49: Impact factor test of the solid dispersion of amorphous Apremilast, sorbitol and polyacrylic resin Eudragit L100 […]
# [3] = Accelerated stability test (related substances by HPLC, crystallinity by XRPD); conditions: for Related substances (Total impurities %) / crystalline (XRPD): Temperature: 40°C±2°C, Humidity: 75%±5%
# Description: Example 10: Accelerated stability test of the amorphous Apremilast
# Material: amorphous Apremilsat was prepared according to the method of Example 1.
# as §1
# The substance was detected by HPLC. […]
# [4] = Temperature 40 °C ± 2 °C, 0 day
# [5] = Temperature 40 °C ± 2 °C, 5 days
# [6] = Temperature 40 °C ± 2 °C, 10 days
# [7] = Temperature 60 °C ± 2 °C, 0 day
# [8] = Temperature 60 °C ± 2 °C, 5 days
# [9] = Temperature 60 °C ± 2 °C, 10 days
# [10] = conditions of high temperature, high humidity after 10 days
# [11] = accelerated test conditions after 6 months
compound,measurement,setting,value
"CCOc1cc([C@@H](CS(C)(=O)=O)N2C(=O)c3cccc(NC(C)=O)c3C2=O)ccc1OC [The crystal Form B of Apremilast, N-[2-[(1S)-1-(3-ethoxy-4-Methoxyphenyl)-2-(Methylsulfonyl)ethyl]-2,3-dihydro-1,3-dioxo-1H-isoindol-4-yl]-Acetamide, reference compound]",Apparent solubility,[1]; pH value of Dilution 2.0,7.86 µg/mL
same,Apparent solubility,[1]; pH value of Dilution 3.0,48.12 µg/mL
same,Apparent solubility,[1]; pH value of Dilution 4.5,24.18 µg/mL
same,Apparent solubility,[1]; pH value of Dilution 5.0,9.99 µg/mL
same,Apparent solubility,[1]; pH value of Dilution 5.6,16.71 µg/mL
same,Apparent solubility,[1]; pH value of Dilution 6.8,12.53 µg/mL
same,Apparent solubility,[1]; pH value of Dilution 7.4,10.71 µg/mL
"CCOc1cc([C@@H](CS(C)(=O)=O)N2C(=O)c3cccc(NC(C)=O)c3C2=O)ccc1OC [amorphous Apremilast, N-[2-[(1S)-1-(3-ethoxy-4-Methoxyphenyl)-2-(Methylsulfonyl)ethyl]-2,3-dihydro-1,3-dioxo-1H-isoindol-4-yl]-Acetamide]",Related substances (Total impurities %),"[2]; Humidity 75%±5%, 0 day",0.08%
same,crystalline (XRPD),"[2]; Humidity 75%±5%, 0 day",There is no peak of crystalline Apremilast
same,Related substances (Total impurities %),"[2]; Humidity 75%±5%, 5 days",0.08%
same,crystalline (XRPD),"[2]; Humidity 75%±5%, 5 days",There is no peak of crystalline Apremilast
same,Related substances (Total impurities %),"[2]; Humidity 75%±5%, 10 days",0.09%
same,crystalline (XRPD),"[2]; Humidity 75%±5%, 10 days",There is no peak of crystalline Apremilast
same,Related substances (Total impurities %),"[2]; Humidity 90%±5%, 0 day",0.08%
same,crystalline (XRPD),"[2]; Humidity 90%±5%, 0 day",There is no peak of crystalline Apremilast
same,Related substances (Total impurities %),"[2]; Humidity 90%±5%, 5 days",0.09%
same,crystalline (XRPD),"[2]; Humidity 90%±5%, 5 days",There is no peak of crystalline Apremilast
same,Related substances (Total impurities %),"[2]; Humidity 90%±5%, 10 days",0.11%
same,crystalline (XRPD),"[2]; Humidity 90%±5%, 10 days",There is no peak of crystalline Apremilast
same,Related substances (Total impurities %),[2]; [4],0.08%
same,crystalline (XRPD),[2]; [4],There is no peak of crystalline Apremilast
same,Related substances (Total impurities %),[2]; [5],0.10%
same,crystalline (XRPD),[2]; [5],There is no peak of crystalline Apremilast
same,Related substances (Total impurities %),[2]; [6],0.12%
same,crystalline (XRPD),[2]; [6],There is no peak of crystalline Apremilast
same,Related substances (Total impurities %),[2]; [7],0.08%
same,crystalline (XRPD),[2]; [7],There is no peak of crystalline Apremilast
same,Related substances (Total impurities %),[2]; [8],0.12%
same,crystalline (XRPD),[2]; [8],There is no peak of crystalline Apremilast
same,Related substances (Total impurities %),[2]; [9],0.14%
same,crystalline (XRPD),[2]; [9],There is no peak of crystalline Apremilast
same,changes in the related substances,[2]; [10],no significant changes
same,crystallization of Apremilast,[2]; [10],no crystallization of Apremilast was observed
same,Related substances (Total impurities %),[3]; 0 month,0.08%
same,crystalline (XRPD),[3]; 0 month,There is no peak of crystalline Apremilast
same,Related substances (Total impurities %),[3]; 1 month,0.10%
same,crystalline (XRPD),[3]; 1 month,There is no peak of crystalline Apremilast
same,Related substances (Total impurities %),[3]; 2 months,0.14%
same,crystalline (XRPD),[3]; 2 months,There is no peak of crystalline Apremilast
same,Related substances (Total impurities %),[3]; 3 months,0.16%
same,crystalline (XRPD),[3]; 3 months,There is no peak of crystalline Apremilast
same,Related substances (Total impurities %),[3]; 6 months,0.18%
same,crystalline (XRPD),[3]; 6 months,There is no peak of crystalline Apremilast
same,changes in the related substances,[3]; [11],no significant changes
same,crystallization of Apremilast,[3]; [11],no crystallization of Apremilast was observed
same,apparent solubility compared with the crystal form or the physical mixture comprising crystal Form B,[1]; at each pH,significantly higher
same,apparent solubility increases,[1]; in most pH conditions,more than 60%
same,solubility at 12 h,"[1]; pH 3.0 acetate diluent, 37 °C, pH 3, aqueous buffer, pH value of Dilution 3.0",66.8 µg/mL
same,solubility at 12 h,"[1]; pH 4.5 diluent, 37 °C, pH 4.5, aqueous buffer, pH value of Dilution 4.5",42.2 µg/mL
same,solubility at 12 h,"[1]; pH 6.8 phosphate diluent, 37 °C, pH 6.8, aqueous buffer, pH value of Dilution 6.8",23.2 µg/mL
same,solubility at 12 h,"[1]; pH 7.4 phosphate diluent, 37 °C, pH 7.4, aqueous buffer, pH value of Dilution 7.4",18.7 µg/mL
same,Apparent solubility,"[1]; pH value of Dilution 2.0, listed as The amorphous form of Apremilast obtained in Example 1",19.32 µg/mL
same,Apparent solubility,"[1]; pH value of Dilution 5.0, listed as The amorphous form of Apremilast obtained in Example 1",22.81 µg/mL
same,solubility at 12 h,"[1]; phthalate buffer pH 5.6, 37 °C, pH 5.6, aqueous buffer, pH value of Dilution 5.6",30 µg/mL
